“And” between values parts separate entries of the source, which are not always exact repeats. Equal values may be shown once. Read-outs that look alike come from different tables or passages of the source.
Columns and labels:
HSV-1 [1] = assay: Drug sensitivity against HSV-1 in Vero cells at different viral passages; assay type: cell-based; details: for IC50: Human alphaherpesvirus 1, Vero
Description: Virus which recovered from medium of each passage at IC50 drug concentration were used to infect the subsequent passage of the cells.

HSV-18m44-CV4r = assay: Drug sensitivity against ACV resistant strain of HSV-1; assay type: cell-based
HSV-1 [2] = assay: Topical treatment of HSV-1 infected skin of guinea pigs; assay type: in vivo; details: guinea pig; for suppression of HSV-1 replication in infected skin: topical five times per day for five days, ABPS 2 and 4 mg/ml, tetramethoxyl NDGA 60 mg/ml, acyclovir 60 mg/ml
Protocol: It is also noted that tetramethoxyl NDGA 4N has been used in an animal system, i.e. to treat HSV infected skin of guinea pigs.
Two male guinea pigs (350 gm body weight) were used in the guinea pig experiment. The back skin of the animal was shaved and equally divided into six patches. Each skin patch was pinched with seven-pin needles and HSV-1 suspension was applied topically to infect each punched area. Twenty-four hours after infection, three agents (ABPS, 2 mg/ml, ABPS 4 mg/ml, tetramethoxyl NDGA, 4N 60 mg/ml and acyclovir 60 mg/ml) were applied to the infected areas five times per day for five days. Picture (FIG. 8) was taken 96 hours following infection.

HSV-Sm44-ACVg = assay: Drug sensitivity against ACV sensitive strain of HSV-1; assay type: cell-based; details: Human alphaherpesvirus 1, read-out: IC50, HSV-Sm44-ACVg
HIV-1 = assay: microbe, parasite or virus in culture; details: Human immunodeficiency virus 1, CEM-SS, read-out: EC50, concentration that protects XTT formazan production in infected culture to 50% of uninfected, untreated cells
Protocol: Consequently, creosote bush extract was tested at the National Cancer Institute (NCI) for inhibition of HIV-1 cytopathic effects using the soluble-formazan assay (Weislow et al., JNCI 81: 577-586, 1989, the entire contents of which are hereby incorporated by reference and relied upon). In principle, CEM-SS cells (ATCC, Rockville, Md.) are cocultivated with HIV-producing H9 cells. Viruses infect the host CEM-SS cells, replicate and kill most of the CEM-SS cells in a week. If the drug inhibits HIV production, CEM-SS cells are protected from HIV-induced cell death.
In practice, triplicate samples of CEM-SS cells (5000) were plated in 96-well microtiter plate. Appropriate concentrations of test compounds were added in a final volume of 100 μl calcium/magnesium-free PBS in 5% DMSO. Control samples received the compound medium (PBS) alone. Five minutes later, 500 highly infectious HIV-1 producing II9 cells or normal H9 cells were added to the wells containing the appropriate drug concentrations. The microtiter plates were incubated at 37° C. in 95% O2/5% CO2 for 6 days after which a 50-μl mixture of XTT and N-methylphenazonium methosulfate (PMS) was added. The plates were reincubated for additional 4 hours for the color development (XTT formazan production). The plates were sealed, their contents were mixed by automatic shaking and the OD450 of samples was determined in a microplate reader. […]

[3] = test system: Tat regulated transactivation (Tat-TRS) of HIV-1 LTR promoter; assay: Secreted alkaline phosphatase (SEAP) assay for Tat transactivation in cotransfected COS cells; assay type: cell-based; details: for EC50: Human immunodeficiency virus 1, COS, 48 h; for Inhibition of Tat-induced SEAP expression: read at 30 minutes
Description: To screen for inhibitors for Tat regulated transactivation (Tat-TRS), the secreted placental alkaline phosphatase (SEAP) reporter gene is put under the control of HIV-1 LTR promoter in the plasmid pBC12HIV/SEAP. The Tat-coded activity is supplied by a second plasmid construct pBC12/CMV/t2. […] An inhibitor should cause reduction of the SEAP activity which is due to inhibition of the expression of the SEAP mRNA via transactivation of the HIV-1 LTR promoter by Tat protein (Tat-TRS).
For the SEAP assay, test materials were dissolved in 10% DMSO solution made in calcium/magnesium-free PBS. The suspension was centrifuged and the stock solution (10 mg/ml) was filter-sterilized using a Millex®-GS […] filter (Millipore). Appropriate dilutions of the stock solution were prepared in a final DMSO concentration of 0.2% in PBS to obtain the various concentrations of test compounds.
Briefly, a day before DNA transfection, Linbro® 24 flat bottom well of 17-mm diameter plates were pretreated with 0.5 ml sterile solution of 0.1% gelatin. The plates were kept in the hood for 1 hour (all transfection steps were performed in the hood, unless otherwise stated). The gelatin solution was aspirated and the plates were washed with 0.5 ml of IMDM supplemented with 10% fetal calf serum and antibiotics (complete medium). […] DNA transfection was performed at 30-50% cell confluency. The stock solution of the Transfectam reagent, DOGS, was prepared according to the manufacturer's advice at 1 mg/0.380 ml ([…] or 3.4 mM) in 10% (v/v) ethanol in distilled water.
The transfection cocktail consisted of two solutions prepared in sterile tubes: • a) Solution A contained a sterile 150 mM NaCl solution+plasmid DNAs (non selected/selected gene in 2:1 ratio): 0.35 μg of pBC12/HIV/SEAP per well+0.175 μg of pBC12/CMB/t2 (coding for Tat function) per well. • b) Solution B Contained an equal volume of 150 mM NaCl and a volume of Transfectame determined to be 6 times the total amount of DNAS. Solutions A and B were homogenized and immediately mixed.
Ten minutes were allowed for the reaction to proceed. Meanwhile, the growth medium was removed from the subconf luent COS cells and 300 μl (100 μl of complete IMDM+200 μl serum-free medium) were added to each well. The transfection cocktail was dispensed to the wells in equal volume. Control samples containing no DNA were similarly treated and received sterile 150 mM NaCl solution alone. All samples were incubated for 10 and 12 hours after which 700 μl of complete growth medium were added. Test compounds prepared in 5% DMSO/Ca-Mg-free PBS (for non-water-soluble materials) were immediately added at various concentrations to the wells. Drug-untreated control samples received 5% DMSO/PBS solution alone (final DMSO concentration of 0.2%). All samples were then incubated for an additional 48 hours after which 300 μl of each culture supernatant was removed for SEAP analysis.
Briefly, a 250-μl aliquot was removed from COS cell culture supernatants, heated at 65° C. for 5 minutes to selectively inactivate endogenous phosphatase (SEAP is heat stable) and centrifuged in a microfuge for 2 minutes. One hundred μl of 2×SEAP assay buffer (1.0 M diethanolamine, pH 9.8; 0.5 mM MgCl2; 10 mm L-homoarginine) were added to 100-μl aliquot of the samples. The solution was mixed and transferred into a 96-well flat-bottom culture dish (Corning). Twenty μl of pre-warmed substrate solution (120 mM p-nitrophenylphosphate dissolved in 1×SEAP assay buffer) were dispensed with a multipipeter into each well containing the reaction mixture. A405 of the reaction was read at 5-minute intervals at 37° C. for 60 minutes using an EL340i microplate reader (Bio-tek Instruments, Inc.) with 5-second automatic shakings before each reading. The change in absorbance was plotted against time in the standard assay of SEAP induction.

uninfected CEM-SS cells = assay: Soluble-formazan (XTT) assay, viability of uninfected CEM-SS cells; assay type: cell-based; details: Homo sapiens, read-out: IC50, inhibitory or toxic concentration reducing XTT formazan production in uninfected cultures to 50%
HSV-1 [4] = assay: Inhibition of HSV-1 replication in Vero cells; assay type: cell-based; details: Human alphaherpesvirus 1, Vero
HSV-1 ICP4 = assay: Inhibition of HSV-1 ICP4 transactivation in Vero cells; assay type: cell-based; details: Human alphaherpesvirus 1, Vero
Vero cells = assay: Inhibition of growth of Vero cells; assay type: cell-based; details: Chlorocebus sabaeus
[5] = read-out: IC50 against HSV-1 in Vero Cells, Passage 1
[6] = read-out: IC50 against HSV-1 in Vero Cells, Passage 2
[7] = read-out: IC50 against HSV-1 in Vero Cells, Passage 3
[8] = read-out: IC50 against HSV-1 in Vero Cells, Passage 4
[9] = read-out: IC50 against HSV-1 in Vero Cells, Passage 5
[10] = read-out: IC50 against HSV-1 in Vero Cells, Passage 10
[11] = Human alphaherpesvirus 1, read-out: IC50, HSV-18m44-CV4r
[12] = read-out: EC50 (concentration exhibiting 50% inhibition) of Tat regulated HIV transactivation, SEAP expression
[13] = read-out: EC50 of Tat regulated HIV transactivation, SEAP expression
[14] = Mal 4 at 9.5 μm, NDGA at 9.9 μm
[15] = Mal 4 at 31.3 μm, NDGA at 32.6 μm
[16] = Mal 4 at 62.7 μm, NDGA at 65.2 μm

In the case of `Nc1nc2c(ncn2COCCO)c(=O)[nH]1` [ACV, acyclovir, reference compound], the IC50 (HSV-1 [1]; [5]) is reported as 7.5 µM, the IC50 (HSV-1 [1]; [6]) is reported as 37.8 µM and the IC50 (HSV-1 [1]; [7]) is reported as > 88.8 µM. For the same compound, the IC50 (HSV-1 [1]; [8]) was 138 µM, the IC50 (HSV-1 [1]; [9]) was > 220 µM and the IC50 (HSV-1 [1]; [10]) was 440 µM. It also gave an IC50 (HSV-1 [1]; read-out: concentration required to inhibit HSV-1, 10th passage) of 440 µM, an IC50 (HSV-1 [1]; read-out: concentration required to inhibit HSV-1, first passage) of 7.5 µM and an IC50 (HSV-18m44-CV4r; [11]) of 118 µM. For the same compound, the “suppression of HSV-1 replication in infected skin” value (HSV-1 [2]) was “effective” and the IC50 (HSV-Sm44-ACVg) was < 6.9 µM.
For `COc1ccc(CC(C)C(C)Cc2ccc(O)c(O)c2)cc1O` (stereo not shown) [Mal 4, 1-(3,4-dihydroxyphenyl)-4-(3-hydroxy-4-methoxyphenyl)-2,3-dimethylbutane], the EC50 (HIV-1) was 4.25 µg/mL and 13.4 µM, the EC50 [3, 12] was 8 µg/mL and the EC50 [3, 13] was 25 µM. The “Inhibition of Tat-induced SEAP expression” value [3, 14] was 13.6%, the “Inhibition of Tat-induced SEAP expression” value [3, 15] was 60.4% and the “Inhibition of Tat-induced SEAP expression” value [3, 16] was 92%. For the same compound, the “Inhibition of Tat-induced SEAP expression” value ([3]; Mal 4 at 95 μm, NDGA at 99 μm) was 100% and the IC50 (uninfected CEM-SS cells) was 100 µg/mL and 325 µM.
In the case of `CC(Cc1ccc(O)c(O)c1)C(C)Cc1ccc(O)c(O)c1` (stereo not shown) [NDGA, 1,4-bis-(3,4-dihydroxyphenyl)-2,3-dimethylbutane], the EC50 [3, 12] is reported as 6 µg/mL, the EC50 [3, 13] is reported as 20 µM and the “Inhibition of Tat-induced SEAP expression” value [3, 14] is reported as 17.0%. For the same compound, the “Inhibition of Tat-induced SEAP expression” value [3, 15] was 73.8%, the “Inhibition of Tat-induced SEAP expression” value [3, 16] was 88.1% and the “Inhibition of Tat-induced SEAP expression” value ([3]; Mal 4 at 95 μm, NDGA at 99 μm) was 92.9%.
With `COc1ccc(C[C@@H](C)[C@@H](C)Cc2ccc(OC)c(OC)c2)cc1OC` [Tetramethoxyl NDGA, tetramethoxyl nordihydroguaiaretic acid] the IC50 (HSV-1 [4]) was 7.7 µM, the inhibition at 0.437 µM (HSV-1 [4]; 0.437 μM) was < 0% and the inhibition at 0.875 µM (HSV-1 [4]; 0.875 μM) was < 0%. For the same compound, the inhibition at 1.75 µM (HSV-1 [4]; 1.75 μM) was < 0%, the inhibition at 3.5 µM (HSV-1 [4]; 3.5 μM) was 20% and the inhibition at 7 µM (HSV-1 [4]; 7 μM) was 40%. It also gave an inhibition at 14 µM (HSV-1 [4]; 14 μM) of 97.5%, an IC50 (HSV-1 [1]; read-out: IC50 against HSV-1, essentially the same from first passage to tenth passage, first to tenth passage in vero cells) of ~10 µM and an IC50 (HSV-1 [1]; [5]) of 11.7 µM. The IC50 (HSV-1 [1]; [6]) was 4.4 µM, the IC50 (HSV-1 [1]; [7]) was 8.2 µM and the IC50 (HSV-1 [1]; [8]) was 5.9 µM. For the same compound, the IC50 (HSV-1 [1]; [9]) was 9.9 µM, the IC50 (HSV-1 [1]; [10]) was 10 µM and the “drug resistance of HSV virus toward the drug” value (HSV-1 [1]; following ten viral passages in vero cells) was “showed no drug resistance”. For the same compound, the IC50 (HSV-1 ICP4) was 33 µM, the inhibition at 20 µM (HSV-1 ICP4; 20 μM) was 8% and the inhibition at 30 µM (HSV-1 ICP4; 30 μM) was 30%. For the same compound, the inhibition at 40 µM (HSV-1 ICP4; 40 μM) was 35%, the inhibition at 50 µM (HSV-1 ICP4; 50 μM) was 52% and the inhibition at 60 µM (HSV-1 ICP4; 60 μM) was 64%. It also gave an inhibition at 70 µM (HSV-1 ICP4; 70 μM) of 68%, an inhibition at 80 µM (HSV-1 ICP4; 80 μM) of 78% and an IC50 (Vero cells) of 142 µM. It also gave an inhibition at 4.37 µM (Vero cells; 4.37 μM) of 1.27%, an inhibition at 8.75 µM (Vero cells; 8.75 μM) of 3.18% and an inhibition at 17.5 µM (Vero cells; 17.5 μM) of 7.64%. The inhibition at 35 µM (Vero cells; 35 μM) was 7.64%, the inhibition at 70 µM (Vero cells; 70 μM) was 9.55% and the inhibition at 140 µM (Vero cells; 140 μM) was 44%. For the same compound, the inhibition at 280 µM (Vero cells; 280 μM) was 79.6%, the IC50 (HSV-18m44-CV4r; [11]) was 6.9 µM and the IC50 (HSV-18m44-CV4r; Human alphaherpesvirus 1, read-out: IC50 against acyclovir resistant strain (HSV-1 SM44-CV4r)) was 6.9 µM. For the same compound, the “HSV-1 growth at infected skin areas” value (HSV-1 [2]; 60 mg/ml, daily topical treatment, five days) was “eliminated HSV-1 growth completely”, the “suppression of HSV-1 replication in infected skin” value (HSV-1 [2]) was “effective” and the IC50 (HSV-Sm44-ACVg) was 6.9 µM.
